Assay results reported in patent publication US10239957B2, “Peptide containing conjugates for dual molecular delivery of oligonucleotides” (Merck Sharp & Dohme Corp., priority 2013, dated 2019).
In the oligonucleotide strings, read from the 5' end, every base follows the letter of its sugar. An asterisk marks phosphorothioate; unmarked linkages are phosphodiester. Other units and linkages are bracketed, terminal groups are in braces. A string of capitals states the bases alone. Where no end group is shown, it is not given here. [ ]: non-standard residue; d: D form. {NH2C6-invAb} = cap: inverted abasic residue carrying an aminohexyl phosphate (attachment handle); [invAb] = inverted abasic unit; m = 2'-O-methyl; f = 2'-fluoro

Legend:
[1] = Lethality observed on in vivo dosing in mice; set-up: key: *: lethal at this dose
Procedure: (§1) Female CD-1 mice (Charles River) were injected in accordance with either a sequential dosing paradigm or a co-dosing paradigm. In the sequential dosing paradigm, the targeted siRNA (SCE) is dosed at t=0 and the targeted peptide is separately dosed up to 2 hr before the SCE (−2 hr) or up to 24 hr after the SCE (+24 hr). In the co-dosing paradigm, the SCE and peptides are co-formulated and dosed together in the same formulation as a single injection at t=0. The mice were dosed either by intravenous (i.v.) or subcutaneous (s.c.) injection of SCE and peptide. For the i.v. doses, the compounds were injected into the tail vein of the mice. For the s.c. doses, the compounds were injected in the subcutaneous space on the back of the mouse between the shoulder blades. At the indicated harvest times (measured from t=0 when the siRNA was dosed, regardless of when the peptide was dosed), the animals were sacrificed and 3 mm liver punches were collected, preserved in RNAlater (Ambion), and stored at 4° C. Separate 5 mm liver punches were collected, placed in 96-well plates, frozen on dry ice, and stored at −80° C. until use.

CTNNB1 [2] = experiment: In vivo evaluation in mice: liver mRNA knockdown measurement; details: for In vivo mRNA knockdown: mice
Procedure: as §1
The 3 mm liver punches were removed from RNAlater and homogenized in Trizol (Invitrogen) using a bead mill tissue lyser (Qiagen); disruption was performed for two 5-minute cycles at 30 Hz. RNA extraction was performed using 1-bromo-2-chloropropane (Acros Organics) and total RNA was isolated from the aqueous phase using the MagMax RNA isolation method (Ambion). […] TaqMan qPCR analysis was performed with an ABI 7900 Real-Time PCR System using TaqMan Fast Advanced Master Mix (Applied Biosystems). All TaqMan probes and primers for CTNNB1 and PPIB (housekeeping gene) were purchased from Applied Biosystems as pre-validated gene expression assays. Results are calculated by the comparative Ct method, where the difference between the CTNNB1 Ct value and the PPIB Ct value (ΔCt) is calculated and then further normalized relative to the PBS control by taking a second difference (ΔΔCt), as described previously (1).

CTNNB1 [3] = experiment: In vitro DMD assay: mRNA silencing enhancement by peptide conjugates after siRNA-IV treatment; assay type: cell-based; details: primary mouse hepatocytes, siRNA-IV 125 nM baseline
In short: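 RT-qPCR read-out, PPIB-normalized (dddCt), gave silencing enhancement versus 125 nM siRNA-IV alone and untreated cells. Beforehand, cultured primary mouse hepatocytes received siRNA-IV for 1 h, then graded peptide-conjugate doses for ~16 h, followed by washout and a further 24 h incubation.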

[4] = siRNA metabolic stability (order stated for FIG. 6); details: order siRNA-I>siRNA-V>siRNA-VI
RISC = biological target: T1, RISC (Mus musculus, UniProt Q8CJG0); experiment: Quantitation of siRNA bound to RISC (RISC loading) in liver; assay type: in vivo, mice; details: siRNA with vinyl phosphonate vs siRNA-I
T1 construct: from tissue; host or cells: liver of female CD-1 mice (5 mm liver punches)
Procedure: as §1, with “use. […]” for “use.”

[5] = TGN-L-siRNA-III 0.5 mg/kg IV, peptide 25 mg/kg IV 15 min after siRNA
[6] = TGN-L-siRNA-III 0.5 mg/kg IV, peptide 2 mg/kg IV 15 min after siRNA
[7] = TGN-L-siRNA-III 0.5 mg/kg IV, peptide 10 mg/kg IV 15 min after siRNA
[8] = TGN-L-siRNA-III 0.25 mg/kg IV, peptide 50 mg/kg IV 15 min after siRNA

T1 sequence (Q8CJG0 whole entry): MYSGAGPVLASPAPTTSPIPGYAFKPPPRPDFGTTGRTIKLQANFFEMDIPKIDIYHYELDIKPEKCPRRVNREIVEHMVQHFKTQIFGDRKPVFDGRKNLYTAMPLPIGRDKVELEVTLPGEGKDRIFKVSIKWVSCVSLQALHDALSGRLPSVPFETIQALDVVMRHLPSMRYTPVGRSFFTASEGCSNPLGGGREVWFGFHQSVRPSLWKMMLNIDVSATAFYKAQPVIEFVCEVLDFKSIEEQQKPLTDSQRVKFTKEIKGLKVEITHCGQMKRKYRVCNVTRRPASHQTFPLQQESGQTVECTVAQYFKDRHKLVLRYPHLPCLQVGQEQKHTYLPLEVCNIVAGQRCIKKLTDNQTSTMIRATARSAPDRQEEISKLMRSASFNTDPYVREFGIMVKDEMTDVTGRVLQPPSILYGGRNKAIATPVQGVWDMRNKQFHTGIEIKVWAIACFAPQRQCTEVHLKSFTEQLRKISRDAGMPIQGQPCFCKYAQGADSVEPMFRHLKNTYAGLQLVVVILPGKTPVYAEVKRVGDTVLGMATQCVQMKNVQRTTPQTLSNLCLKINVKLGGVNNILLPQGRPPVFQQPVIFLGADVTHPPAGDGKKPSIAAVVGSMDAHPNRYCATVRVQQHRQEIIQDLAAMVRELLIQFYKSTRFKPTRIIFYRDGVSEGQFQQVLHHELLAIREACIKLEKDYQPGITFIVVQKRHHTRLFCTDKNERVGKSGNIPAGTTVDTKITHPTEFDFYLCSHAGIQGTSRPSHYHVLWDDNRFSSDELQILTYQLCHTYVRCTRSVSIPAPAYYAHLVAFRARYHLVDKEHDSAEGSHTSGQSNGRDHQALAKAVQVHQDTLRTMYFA

## TGN-S-S-SEQ ID NO: 1248 (D) (C[dF][dL][dE][dE][dL][dW][dE][dL][dL][dE][dH][dL][dL]; not fully specified (residue 1); listed as Homo sapiens)
[1]; [5]
  Lethality mark at targeted peptide dose: 25*
CTNNB1 [2]; [6]
  In vivo mRNA knockdown: 42%
CTNNB1 [2]; [7]
  In vivo mRNA knockdown: 74%
CTNNB1 [2]; [5]
  In vivo mRNA knockdown: 58%

## TGN-S-S-SEQ ID NO: 1419 (D) (C[dF][dL][dE][dE][dL][dW]G[dL][dL][dE][dH][dL][dL]; not fully specified (residue 1); listed as Homo sapiens)
[1]; [5]
  Lethality mark at targeted peptide dose: 25*
CTNNB1 [2]; [6]
  In vivo mRNA knockdown: 43%
CTNNB1 [2]; [7]
  In vivo mRNA knockdown: 78%
CTNNB1 [2]; [5]
  In vivo mRNA knockdown: 76%

## TGN-S-S-SEQ ID NO: 1654 (D) (CG[dL][dL][dE][dE][dI][dE][dE][dL][dL][dE][dE]G[dL][dE][dN][dL][dI][dD][dW]G[dN][dS]; not fully specified (residue 1); listed as Homo sapiens)
CTNNB1 [3]; Targeted peptide dose 25 nM
  In vitro dddCt (vs. baseline SCE dose): −0.39
CTNNB1 [3]; Targeted peptide dose 125 nM
  In vitro dddCt (vs. baseline SCE dose): −1.05
CTNNB1 [3]; Targeted peptide dose 3125 nM
  In vitro dddCt (vs. baseline SCE dose): −1.48
CTNNB1 [3]; Targeted peptide dose 15625 nM
  In vitro dddCt (vs. baseline SCE dose): −1.61
[1]; [8]
  Lethality mark at targeted peptide dose: 50*
CTNNB1 [2]; TGN-L-siRNA-III 0.25 mg/kg IV, peptide 2 mg/kg IV 15 min after siRNA
  In vivo mRNA knockdown: 51%
CTNNB1 [2]; TGN-L-siRNA-III 0.25 mg/kg IV, peptide 10 mg/kg IV 15 min after siRNA
  In vivo mRNA knockdown: 72%
CTNNB1 [2]; [8]
  In vivo mRNA knockdown: 65%

## siRNA-I: CTNNB1 siRNA; passenger SEQ ID NO 1803, guide SEQ ID NO 1804 (sense CUGUUGGAUUGAUUCGAAAUU; guide UUUCGAAUCAAUCCAACAGUU; (1)..(1) aminohexyl phosphate inverted abasic cap; (1)..(2) 2′-O-methyl; (3)..(3) 2′-deoxy-2′-fluoro; (4)..(5) 2′-O-methyl; (6)..(8) 2′-deoxy-2′-fluoro; (9)..(10) 2′-O-methyl; (11)..(12) 2′-deoxy-2′-fluoro; (13)..(15) 2′-O-methyl; (16)..(19) 2′-deoxy-2′-fluoro; (20)..(21) 2′-O-methyl; (20)..(21) phosphorothioate internucleotide linkage; (21)..(21) inverted abasic cap; (1)..(1) 2′-O-methyl; (1)..(2) phosphorothioate internucleotide linkage; (2)..(2) 2′-deoxy-2′-fluoro; (2)..(3) phosphorothioate internucleotide linkage; (3)..(3) 2′-O-methyl; (3)..(4) phosphorothioate internucleotide linkage)
CTNNB1 [2]; peptide within 2 hr before up to 24 hr after siRNA dose
  Effect of timing of peptide dose on activity, FIG. 6: does not significantly change the activity
[4]
  siRNA (metabolic) stability: highly stable

## siRNA-III: CTNNB1 siRNA; passenger SEQ ID NO 1803, guide SEQ ID NO 1806 (vinylPmoeT) (sense CUGUUGGAUUGAUUCGAAAUU; guide TUUCGAAUCAAUCCAACAGUU; vinylphosphonate MOE T; (1)..(1) aminohexyl phosphate inverted abasic cap; (1)..(2) 2′-O-methyl; (3)..(3) 2′-deoxy-2′-fluoro; (4)..(5) 2′-O-methyl; (6)..(8) 2′-deoxy-2′-fluoro; (9)..(10) 2′-O-methyl; (11)..(12) 2′-deoxy-2′-fluoro; (13)..(15) 2′-O-methyl; (16)..(19) 2′-deoxy-2′-fluoro; (20)..(21) 2′-O-methyl; (20)..(21) phosphorothioate internucleotide linkage; (21)..(21) inverted abasic cap; (1)..(1) terminal vinyl phosphate; (1)..(1) 2′-methoxyethoxy; (2)..(21) ribonucleotide unmodified or modified as described for this sequence; (2)..(2) 2′-deoxy-2′-fluoro; (3)..(3) 2′-O-methyl; (4)..(4) …)
RISC
  Time course of RISC loading (FIG. 5): rate of RISC loading: faster RISC loading

## siRNA-V: CTNNB1 siRNA; passenger SEQ ID NO 1803, guide SEQ ID NO 1808 (sense {NH2C6-invAb}-mCmUfGmUmUfGfGfAmUmUfGfAmUmUmCfGfAfAfAmU*mU[invAb]; guide mUfUmUfCmGfAmAfUmCfAmAfUmCfCmAfAmCfAmGmU*mU)
CTNNB1 [2]; longer separation times (4-24 hr post-siRNA dose)
  Activity, FIG. 6: background levels
CTNNB1 [2]; peptide dose times within 2 hr (before or after) the siRNA
  Activity (KD), FIG. 6: ~25%
[4]
  siRNA (metabolic) stability: moderately stable

## siRNA-VI: CTNNB1 siRNA; passenger SEQ ID NO 1803, guide SEQ ID NO 1809 (sense {NH2C6-invAb}-mCmUfGmUmUfGfGfAmUmUfGfAmUmUmCfGfAfAfAmU*mU[invAb]; guide fUfUfUmCfGfAfAmUmCfAfAmUmCfCfAfAmCfAfGmU*mU)
CTNNB1 [2]; DMD with peptide, more unstable siRNA
  Activity, FIG. 6: background levels
[4]
  siRNA (metabolic) stability: more unstable
